The subject of assay [1] is Mycobacterium-Induced Rat Footpad Edema. Put plainly: Mycobacterium-Induced Rat Footpad Edema Assay (MFE). Type of assay: in vivo. The conditions noted are these: at 10 m/k, dosed one hour before Mycobacterium and Days 1 and 2, 72 hours. Here is the method:
Mycobacterium - Induced Rat Footpad Edema Assay (MFE): Protocol Mycobacterium butyricum (5 mg/ml) is suspended in paraffin oil by sonication for ten minutes in an ice bath. Footpad edema is induced on Day 0 by injecting 0.1 ml of the Mycobacterium mixture into the left hindpaw of lightly anesthetized rats. Swelling in the injected hindpaw is determined by mercury plethysmography 72 hours after injection. Groups of rats are treated with test compounds (suspended in 0.5% hydroxypropyl methylcellulose with 0.2% Tween-80) or vehicle one hour before Mycobacterium injection and on Days 1 and 2. Inhibition of swelling is determined by comparing the change in hindpaw volume in compound- and vehicle-treated rats. An ID40 (the dose at which swelling is inhibited by 40%) is calculated by probit analysis. Table 1 also contains biochemical data for compounds of formula I obtained from the CFE and MFE assays.

The target of the next assay is T1, cyclooxygenase (Rattus norvegicus, UniProt Q63921).
T1 construct: host or cells: RBL-1 (rat basophilic leukemia)
T1 sequence (Q63921 27-602): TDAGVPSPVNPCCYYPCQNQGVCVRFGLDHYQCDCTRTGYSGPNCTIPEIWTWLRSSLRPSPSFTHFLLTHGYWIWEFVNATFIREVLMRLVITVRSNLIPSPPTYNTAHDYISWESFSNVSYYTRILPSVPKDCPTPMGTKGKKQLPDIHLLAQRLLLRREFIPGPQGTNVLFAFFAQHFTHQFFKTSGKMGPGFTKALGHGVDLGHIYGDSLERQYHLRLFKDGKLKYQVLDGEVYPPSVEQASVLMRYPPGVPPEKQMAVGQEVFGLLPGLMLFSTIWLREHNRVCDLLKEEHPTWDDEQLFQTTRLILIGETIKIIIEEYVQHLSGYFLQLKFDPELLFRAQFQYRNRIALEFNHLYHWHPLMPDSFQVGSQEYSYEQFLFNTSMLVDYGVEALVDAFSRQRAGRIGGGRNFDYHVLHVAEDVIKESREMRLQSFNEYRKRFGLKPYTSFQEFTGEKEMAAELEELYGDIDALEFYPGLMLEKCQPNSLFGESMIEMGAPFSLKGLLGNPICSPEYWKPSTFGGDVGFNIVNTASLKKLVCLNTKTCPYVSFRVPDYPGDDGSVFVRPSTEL
Briefly: ARBC whole cell cyclooxygenase assay (RBL-1 cells, inhibition of PGF2α formation). Particulars: calcium ionophore A23187 (5 μM). Type of assay: cell-based. Here is the method:
(§1) ARBL/ARBC WHOLE CELL 5-LIPOXYGENASE AND CYCLOOXYGENASE ASSAYS
(§2) The rat basophilic leukemia cell line (RBL-1) was obtained from the American Type Culture Collection (Rockville, Md.).
(§3) Radioimmunoassay (RIA) kits of LTB4 and PGF2α were obtained from Amersham (Arlington Heights, Ill.) and Seragen (Boston, Mass.), respectively.
(§4) All tissue culture media were obtinaed from GIBCO (Grand Island, N.Y.).
(§5) RBL-1 cells are grown in suspension culture in Eagle's minimum essential medium supplemented with 12% fetal bovine serum at 37° C. in an incubator supplied with air-5% carbon dioxide. Cells are harvested by centrifugation. They are washed with cold phosphate-buffered saline, pH 7.4 (PBS; NaCl, 7.1 g; Na2 HPO4, 1.15 g; KH2 PO4, 0.2 g; and KCl, 0.2 g/L). Cells are finally suspended in PBS containing 1.0 mM calcium at a density of 2×10^6 cells/mL. Cells are incubated […] test agent (in DMSO) (1% DMSO is without effect on arachidonic acid metabolism) for 10 minutes at room temperature. Calcium ionophore A23187 (5 μM) is added and cells are incubated for 7 minutes at 37° C. The reaction is stopped by chilling the tubes on ice for 10 minutes. Cells are separated by centrifugation and the supernatant is stored at -20° C. Aliquots (100 μL) are anlyzed for LTB4 and PGF2α using radioimmunoassay kits as provided by the supplier.
(§6) Table 1 contains biochemical data for compounds of formula I obtained from this whole cell assay as amount of inhibition at 10 μM or IC50 s which are calculated as the concentration of a test compound in micromoles (μM) causing 50% inhibition of LTB4 or PGF2α formation.

The next assay addresses T2, 5-lipoxygenase (Rattus norvegicus, UniProt P12527).
T2 construct: host or cells: RBL-1 (rat basophilic leukemia)
T2 sequence (P12527 1-673): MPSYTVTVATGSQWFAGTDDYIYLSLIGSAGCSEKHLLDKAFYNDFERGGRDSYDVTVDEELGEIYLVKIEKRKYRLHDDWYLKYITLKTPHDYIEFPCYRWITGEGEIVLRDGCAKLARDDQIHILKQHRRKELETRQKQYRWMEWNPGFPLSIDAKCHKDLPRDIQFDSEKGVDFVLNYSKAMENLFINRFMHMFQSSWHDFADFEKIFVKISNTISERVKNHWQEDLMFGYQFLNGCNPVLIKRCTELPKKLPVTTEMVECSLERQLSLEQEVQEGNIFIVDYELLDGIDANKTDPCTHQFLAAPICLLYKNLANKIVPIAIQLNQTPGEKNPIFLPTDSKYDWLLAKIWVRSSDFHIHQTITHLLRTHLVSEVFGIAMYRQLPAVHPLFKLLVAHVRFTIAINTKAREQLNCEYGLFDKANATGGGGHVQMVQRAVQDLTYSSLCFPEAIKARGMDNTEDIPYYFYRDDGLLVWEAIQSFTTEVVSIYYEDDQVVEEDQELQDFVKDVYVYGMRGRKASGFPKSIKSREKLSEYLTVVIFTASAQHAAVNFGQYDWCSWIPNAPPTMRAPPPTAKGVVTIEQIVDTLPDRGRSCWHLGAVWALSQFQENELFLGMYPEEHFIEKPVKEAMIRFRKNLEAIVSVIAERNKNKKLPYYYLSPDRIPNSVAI
Put plainly: ARBL whole cell 5-lipoxygenase assay (RBL-1 cells, inhibition of LTB4 formation). Type of assay: cell-based. Particulars: calcium ionophore A23187 (5 μM). The protocol: as §1, §2, §3, §4, §5, §6

For assay [2], the system named is Carrageenan-Induced Rat Foot Paw Edema. Put plainly: Carrageenan-Induced Rat Foot Paw Edema-2 (CFE-2) Assay. The class given is in vivo. The conditions noted are these: at 10 m/k, dosed one hour before carrageenan, edema at five hours. The protocol:
Carrageenan-Induced Rat Foot Paw Edema-2 (CFE-2) Assay: Protocol
Carrageenan solution (1% w/v) is prepared by dissolving 100 mg carrageenan (Marine Colloidal Div., Springfield N.J.) in 10 ml of sterile saline (0.9%) solution (travenol). The solution is vortexed for 30 to 45 minutes. Animals are dosed with compound one hour before carrageenan challenge. Foot paw edema is induced by injecting 0.10 ml of the 1% carrageenan subcutaneously into the plantar portion of the right hind paw of each rat under light anesthesia. Initial foot paw volume is measured immediately following carrageenan challenge using mercury plethysmography (Buxco Electronics). Edema is measured five hours after carrageenan. The difference between the five-hour and the initial paw volume is expressed as delta edema. The delta edema for each test group of animals is used to calculate the percent inhibition of edema achieved by the compound at the test dose compared with the vehicle control group. The ID40 (the dose at which swelling is inhibited by 40%) is calculated by probit analysis for the dose at which 40 percent inhibition occurs.
Table 1 also contains biochemical data for compounds of formula I obtained from the CFE and MFE assays.
For orientation: The carrageenan paw model is a standard test of acute inflammation.

Setting [3] is: read-out: ARBC, inhibition of PGF2α (class symbol N).
The mark [4] stands for this setting: read-out: ARBC, inhibition of PGF2α.

Like-named read-outs stand apart in the source and are kept apart here. Bounds are passed on as bounds.

For orientation: IC50 means the point on the concentration scale where inhibition reaches its midpoint. One may read the inhibition as the relative decrease from the control value, in per cent.

Turning to `CC(C)(C)c1cc(/C=C2\C(=O)Nc3ccccc32)cc(C(C)(C)C)c1O` [Example 1, 3-[[3,5-bis(1,1-dimethylethyl)-4-hydroxyphenyl]methylene]1,3,-dihydro-2H-indole-2-one, (Z)-], the “MFE, inhibition of swelling” value in assay [1] is on record as 42%. The IC50 on cyclooxygenase came out at 1.5 µM; at 5-lipoxygenase it was 0.93 µM.
In the case of `Cc1ccc2c(c1)/C(=C/c1cc(C(C)(C)C)c(O)c(C(C)(C)C)c1)C(=O)N2` [Example 2, 3-[[3,5-Bis(1,1-dimethylethyl)-4-hydroxyphenyl]-methylene]-1,3-dihydro-5-methyl-2H-indole-2-one, (Z)], the inhibition at 10 µM was < 40% on cyclooxygenase (setting [3]) and 100% on 5-lipoxygenase.
Consider `CC(C)(C)c1cc(/C=C2\C(=O)N(C(N)=O)c3ccccc32)cc(C(C)(C)C)c1O` [Example 3], for which the inhibition at 10 µM on cyclooxygenase (setting [4]) stood at 32%; at 5-lipoxygenase, 100%.
Taken in the same sequence, the figures for `CN1C(=O)/C(=C\c2cc(C(C)(C)C)c(O)c(C(C)(C)C)c2)c2ccccc21` [Example 4] were 30% and 100%.
In the case of `COc1cccc2c1NC(=O)/C2=C\c1cc(C(C)(C)C)c(O)c(C(C)(C)C)c1` [Example 5, 3-[[3,5-bis(1,1-dimethylethyl)-4-hydroxyphenyl]-methylene]-1,3-dihydro-7-methoxy-2H-indol-2-one, (Z)-], the “MFE, inhibition of swelling” value in assay [1] is 33%. Further, in assay [2], the “CFE, inhibition of edema” value worked out at 43%. Further, the values for the concentration for half-maximal inhibition (IC50) at cyclooxygenase and on 5-lipoxygenase were 6.07 µM and 0.43 µM, respectively.
For `CCOC(=O)c1ccc2c(c1)/C(=C/c1cc(C(C)(C)C)c(O)c(C(C)(C)C)c1)C(=O)N2` [Example 6, 3-[[3,5-bis(1,1-dimethylethyl)-4-hydroxyphenyl]-methylene]-2,3-dihydro-2-oxo-1H-indole-5-carboxylic acid, ethyl ester (Z)-], the inhibition at 10 µM at cyclooxygenase (setting [3]) is < 40%; on 5-lipoxygenase it was 100%.
For `Cc1cccc2c1NC(=O)/C2=C\c1cc(C(C)(C)C)c(O)c(C(C)(C)C)c1` [Example 7] the same measures were < 40% and 100%.
For the compound `COc1ccc2c(c1)/C(=C/c1cc(C(C)(C)C)c(O)c(C(C)(C)C)c1)C(=O)N2C` [Example 8, 3-[[3,5-bis(1,1-dimethylethyl)-4-hydroxyphenyl]methylene]-1,3-dihydro-5-methoxy-1-methyl-2H-indole-2-one, (Z)-], the inhibition at 10 µM on cyclooxygenase (setting [3]) is < 40%; on 5-lipoxygenase, 100%.
Regarding `CC(C)(C)c1cc(/C=C2\C(=O)Nc3cccc(Cl)c32)cc(C(C)(C)C)c1O` [Example 9, 3-[[3,5-bis(1,1-dimethylethyl)-4-hydroxyphenyl]methylene]-4-chloro-1,3-dihydro-2H-indole-2-one, (Z)-], the figures for the inhibition at 10 µM at cyclooxygenase (setting [3]) and at 5-lipoxygenase were < 40% and 48%, respectively.
Taken in the same sequence, the figures for `Cc1cccc2c1/C(=C/c1cc(C(C)(C)C)c(O)c(C(C)(C)C)c1)C(=O)N2` [Example 10, 3-[[3,5-bis(1,1-dimethylethyl)-4-hydroxyphenyl]methylene]-1,3-dihydro-4-methyl-2H-indole-2-one, (Z)-] were < 40% and 100%.
`CC(C)(C)c1cc(/C=C2\C(=O)Nc3ccc(C(=O)O)cc32)cc(C(C)(C)C)c1O` [Example 12, 3-[[3,5-bis(1,1-dimethylethyl)-4-hydroxyphehyl]methylene]-2,3-dihydro-2-oxo-1H-indole-5-carboxylic acid, (Z)-]: the results for the inhibition at 10 µM at cyclooxygenase (setting [3]) and on 5-lipoxygenase were < 40% and 100%, respectively.

For the origin of these results see patent US5124347A, “3-5-ditertiarybutylphenyl-4-hydroxymethylidene derivatives of 1,3-dihydro-2H-indole-2-ones as antiinflammatory agents” (Warner-Lambert Co., priority 1991, dated 1992).
